From US7499894B2, “Cerebral programming” (priority 2001, dated 2009)

Legend:
[1] = tested on: cultured cortical network; details: perfusion with APV and CNQX together; many published reports; cited from earlier work
[2] = tested on: cultured network of cortical neurons; assay: Spiking activity of cultured cortical network, intracellular and MEA recordings; assay type: cell-based, rat; details: all three applied together: 5 μM bicuculin, 10 μM DNQX and 20 μM APV; cortical neurons from newborn rats on MEA
Procedure: Culture techniques. Cortical neurons are obtained from newborn rats within 24 hours from birth, following standard procedures. The cortex tissue is digested enzymatically and mechanically dissociated. The neurons are plated directly onto substrate-integrated multi-electrode array (MEA) dishes (see below). The cultures are bathed in MEM supplemented with heat-inactivated horse serum (5%), Glutamine (0.5 mM), Glucose (20 mM), and Gentamycin (10 μg/ml), and maintained in an atmosphere of 37° C., 5% CO2 and 95% air in a tissue culture incubator and during the recording phases. Half of the medium is exchanged twice a week. Experiments are performed in the third week after plating, thus allowing complete maturation of the neurons.
The electrical activity of the cultured network is dependent upon synaptic transmission: there are many published reports showing that the electrical activity in a cultured cortical network may be blocked by perfusion with the N-Methyl-D-aspartate (NMDA) receptor antagonist D-2-amino-5-phosphonovalerate (APV) and non-NMDA receptor antagonist 6-cyano-7-nitroquinoxaline-2,3-dion (CNQX). We repeated these experiments, using intracellular recordings as well as MEA recordings.
Electrophysiological methods. We use arrays of 60 Ti/Au/TiN electrodes, 30 μm in diameter, spaced 200 μm from each other (MultiChannelSystems (MCS), Reutlingen, Germany). The insulation layer (silicon nitride), is pretreated with poly-L-lysine forming a good surface for network development. A commercial 60-channel amplifier (B-MEA-1060, MCS, Reutlingen, Germany) with frequency limits of 10-3000 Hz and a gain of ×1024 is used. The B-MEA-1060 is connected to MCPPlus filter amplifiers (Alpha Omega, Nazareth, Israel) for further amplification (×10 to ×20). Stimulation through the MEA is performed using a dedicated 8-channel stimulus generator (MCS, Reutlingen, Germany). Micro-incubation environment is arranged, to support long-term recordings from MEA dishes. […]

Row | SMILES | electrical activity in a cultured cortical network [1] | spiking activity within the cultured network [2]
1 | N#Cc1cc2c(cc1[N+](=O)[O-])=NC(=O)C(=O)N=2 [CNQX, 6-cyano-7-nitroquinoxaline-2,3-dion] | blocked | 
2 | O=[N+]([O-])c1cc2nc(O)c(O)nc2cc1[N+](=O)[O-] [DNQX] |  | completely abolished
3 | N[C@H](CCCP(=O)(O)O)C(=O)O [APV, D-2-amino-5-phosphonovalerate] | blocked | completely abolished
4 | CN1CCc2cc3c(cc2[C@H]1[C@@H]1OC(=O)c2c1ccc1c2OCO1)OCO3 [bicuculin] |  | completely abolished
